In patent publication US12492188B2, “1H-benzo[D]imidazole derivatives as TLR9 inhibitors for the treatment of fibrosis” (BRISTOL-MYERS SQUIBB COMPANY, priority 2020, dated 2025):
pIC50: −log10 of the molar value. Like-named read-outs stand apart in the source and are kept apart here.

Tests used:
Type in all cases: cell-based
human TLR7 = molecular target: T1, human TLR7 (Homo sapiens, UniProt Q9NYK1); experiment: TLR7 inhibition reporter assay (HEK-Blue cells, secreted embryonic alkaline phosphatase reporter); settings: HEK-Blue cells overexpressing human TLR7, stimulated with gardiquimod 7.5 μM; read-out: TLR 7 IC50
T1 construct: host or cells: HEK-Blue cells (HEK293-derived reporter line)
T1 sequence (Q9NYK1 27-1049): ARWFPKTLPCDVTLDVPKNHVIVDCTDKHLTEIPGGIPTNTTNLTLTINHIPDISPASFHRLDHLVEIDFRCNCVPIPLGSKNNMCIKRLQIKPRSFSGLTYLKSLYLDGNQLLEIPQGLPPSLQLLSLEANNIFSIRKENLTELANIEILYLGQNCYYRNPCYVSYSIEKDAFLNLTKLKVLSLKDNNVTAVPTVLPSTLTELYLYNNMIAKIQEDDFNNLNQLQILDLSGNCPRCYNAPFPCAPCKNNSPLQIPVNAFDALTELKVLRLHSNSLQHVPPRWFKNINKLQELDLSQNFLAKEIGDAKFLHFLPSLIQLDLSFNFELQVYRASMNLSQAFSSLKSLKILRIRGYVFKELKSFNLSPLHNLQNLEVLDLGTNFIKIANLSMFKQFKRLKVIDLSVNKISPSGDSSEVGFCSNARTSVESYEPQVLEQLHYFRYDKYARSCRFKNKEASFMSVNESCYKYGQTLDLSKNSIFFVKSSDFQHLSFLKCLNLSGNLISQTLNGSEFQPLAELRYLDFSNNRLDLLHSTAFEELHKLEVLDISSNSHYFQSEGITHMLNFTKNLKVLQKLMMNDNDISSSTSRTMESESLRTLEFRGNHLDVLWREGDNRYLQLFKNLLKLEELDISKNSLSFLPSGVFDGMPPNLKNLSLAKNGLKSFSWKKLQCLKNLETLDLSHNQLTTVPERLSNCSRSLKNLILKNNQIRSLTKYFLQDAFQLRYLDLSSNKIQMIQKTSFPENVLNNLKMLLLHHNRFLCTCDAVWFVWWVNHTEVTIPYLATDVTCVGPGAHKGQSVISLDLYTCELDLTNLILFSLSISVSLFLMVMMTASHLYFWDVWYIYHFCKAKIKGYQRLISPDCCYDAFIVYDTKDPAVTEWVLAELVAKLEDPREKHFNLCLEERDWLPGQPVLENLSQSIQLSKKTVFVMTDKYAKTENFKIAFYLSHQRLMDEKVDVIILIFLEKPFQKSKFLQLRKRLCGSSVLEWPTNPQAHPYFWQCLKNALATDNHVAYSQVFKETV
Method in brief: (§1)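 Agonist-driven SEAP output was measured in HEK-Blue reporter cells carrying human TLR7 (gardiquimod 7.5 μM), TLR8 (R848 15.9 μM) or TLR9 (ODN2006 5 nM). Compounds at 0.05 nM–50 μM final were added 30 min before stimulation at room temperature. After 22 h at 37 °C, percent inhibition was taken against agonist/DMSO wells and a reference inhibitor.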

human TLR9 = molecular target: T2, human TLR9 (Homo sapiens, UniProt Q9NR96); experiment: TLR9 inhibition reporter assay (HEK-Blue cells, secreted embryonic alkaline phosphatase reporter)
T2 construct: host or cells: HEK-Blue cells (HEK293-derived reporter line)
T2 sequence (Q9NR96 26-1032): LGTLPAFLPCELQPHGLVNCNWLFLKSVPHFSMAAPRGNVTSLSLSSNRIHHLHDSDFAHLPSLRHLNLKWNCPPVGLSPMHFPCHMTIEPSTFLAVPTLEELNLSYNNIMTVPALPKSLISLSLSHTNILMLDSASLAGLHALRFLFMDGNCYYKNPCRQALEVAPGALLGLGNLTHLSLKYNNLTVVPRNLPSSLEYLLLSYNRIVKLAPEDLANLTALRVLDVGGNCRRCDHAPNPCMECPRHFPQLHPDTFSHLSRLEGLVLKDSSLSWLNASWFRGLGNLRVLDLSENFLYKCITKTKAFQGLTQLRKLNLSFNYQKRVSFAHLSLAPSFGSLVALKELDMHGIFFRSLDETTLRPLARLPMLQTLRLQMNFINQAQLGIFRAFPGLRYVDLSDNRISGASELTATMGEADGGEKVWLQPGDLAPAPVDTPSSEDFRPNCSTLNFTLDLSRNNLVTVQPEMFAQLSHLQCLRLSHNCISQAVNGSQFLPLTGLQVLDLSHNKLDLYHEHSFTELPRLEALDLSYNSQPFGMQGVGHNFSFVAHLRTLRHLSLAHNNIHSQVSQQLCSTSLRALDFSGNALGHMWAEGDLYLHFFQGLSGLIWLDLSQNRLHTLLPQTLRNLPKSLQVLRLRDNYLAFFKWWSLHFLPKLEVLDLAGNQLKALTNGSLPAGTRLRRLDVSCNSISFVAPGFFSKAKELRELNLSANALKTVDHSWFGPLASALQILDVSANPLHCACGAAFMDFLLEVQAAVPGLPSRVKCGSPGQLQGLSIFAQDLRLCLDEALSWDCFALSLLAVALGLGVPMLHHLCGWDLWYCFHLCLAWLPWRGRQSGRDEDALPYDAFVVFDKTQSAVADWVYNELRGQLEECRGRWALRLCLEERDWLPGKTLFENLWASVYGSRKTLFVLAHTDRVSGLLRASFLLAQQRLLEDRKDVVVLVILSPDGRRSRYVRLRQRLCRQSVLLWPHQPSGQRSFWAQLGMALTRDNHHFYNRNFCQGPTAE
Method in brief: as §1

human TLR8 = molecular target: T3, human TLR8 (Homo sapiens, UniProt Q9NR97); experiment: TLR8 inhibition reporter assay (HEK-Blue cells, secreted embryonic alkaline phosphatase reporter); settings: HEK-Blue cells overexpressing human TLR8, stimulated with R848 15.9 μM; read-out: TLR 8 IC50
T3 construct: host or cells: HEK-Blue cells (HEK293-derived reporter line)
T3 sequence (Q9NR97 27-1041): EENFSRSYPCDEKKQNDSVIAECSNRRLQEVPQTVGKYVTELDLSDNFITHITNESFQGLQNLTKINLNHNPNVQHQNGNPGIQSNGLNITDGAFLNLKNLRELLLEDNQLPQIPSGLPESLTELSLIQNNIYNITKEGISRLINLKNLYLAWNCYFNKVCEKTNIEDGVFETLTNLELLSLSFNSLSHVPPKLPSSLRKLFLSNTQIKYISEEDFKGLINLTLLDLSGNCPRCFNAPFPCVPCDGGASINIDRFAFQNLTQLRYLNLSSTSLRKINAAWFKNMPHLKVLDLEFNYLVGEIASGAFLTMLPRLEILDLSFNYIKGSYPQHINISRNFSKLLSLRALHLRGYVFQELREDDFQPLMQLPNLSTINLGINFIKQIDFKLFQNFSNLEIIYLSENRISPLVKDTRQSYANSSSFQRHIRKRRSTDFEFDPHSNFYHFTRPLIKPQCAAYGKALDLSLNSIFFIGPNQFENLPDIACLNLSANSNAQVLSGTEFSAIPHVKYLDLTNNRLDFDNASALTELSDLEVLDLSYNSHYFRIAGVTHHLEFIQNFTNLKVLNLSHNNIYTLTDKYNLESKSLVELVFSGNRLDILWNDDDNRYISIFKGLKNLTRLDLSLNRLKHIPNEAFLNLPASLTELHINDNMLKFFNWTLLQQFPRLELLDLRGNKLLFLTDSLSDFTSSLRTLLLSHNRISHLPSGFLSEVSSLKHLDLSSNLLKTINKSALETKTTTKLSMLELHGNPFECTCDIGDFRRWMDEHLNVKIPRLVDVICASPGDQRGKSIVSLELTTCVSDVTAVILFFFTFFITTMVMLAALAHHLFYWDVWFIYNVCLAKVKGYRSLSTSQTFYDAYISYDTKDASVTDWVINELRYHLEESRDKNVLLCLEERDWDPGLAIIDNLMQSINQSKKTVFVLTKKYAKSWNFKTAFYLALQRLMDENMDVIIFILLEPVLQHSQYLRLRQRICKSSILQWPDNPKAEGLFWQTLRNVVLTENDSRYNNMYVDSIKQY
Method in brief: as §1

[1] = HEK-Blue cells overexpressing human TLR9, stimulated with ODN2006 5 nM, 22 hour incubation, reporter readout
[2] = HEK-Blue cells overexpressing human TLR9, stimulated with ODN2006 5 nM, read-out: TLR 9 IC50
[3] = HEK-Blue human TLR9 reporter cells

pIC50 (human TLR7)	pIC50 (human TLR9; [1])	pIC50 (human TLR9; [2])	pIC50 (human TLR8)	pIC50 (human TLR9)	pIC50 (human TLR9; [3])	SMILES
5.11	6.89	6.88	< 4.30			COc1ccc(-c2nc3c(C)cc(C4CCN(C5CCN(CC(C)C)CC5)CC4)cc3n2C)cc1F [Example 54, 2-(3-fluoro-4-methoxyphenyl)-6-(1′-isobutyl-[1,4′-bipiperidin]-4-yl)-1,4-dimethyl-1H-benzo[d]imidazole]
4.58		7.29	< 4.30	7.29		Cn1c(-c2ccc(S(C)(=O)=O)cc2)nc2ccc(C3CCN(C4CC5CCC(C4)N5C4CCOCC4)CC3)c(F)c21 (stereo not shown) [Example 274, 7-fluoro-1-methyl-2-(4-(methylsulfonyl)phenyl)-6-(1-(8-(tetrahydro-2H-pyran-4-yl)-8-azabicyclo[3.2.1]octan-3-yl)piperidin-4-yl)-1H-benzo[d]imidazole]
5.33		7.40	< 4.60	7.40		COc1ccc(-c2nc3c(C)cc(C4CCN(C5CC6CCC(C5)N6C5CCOCC5)CC4)cc3n2C)cc1OC (single isomer, unassigned) [Example 166, 2-(3,4-dimethoxyphenyl)-1,4-dimethyl-6-(1-(8-(tetrahydro-2H-pyran-4-yl)-8-azabicyclo[3.2.1]octan-3-yl)piperidin-4-yl)-1H-benzo[d]imidazole]
6.15		8.01	4.58		8.01	COc1cc(-c2nc3c(C)cc(C4CCN(C5CC6CCC(C5)N6C5CC5)CC4)cc3[nH]2)cn2ncnc12 (stereo not shown) [Example 360, 6-(6-(1-(8-cyclopropyl-8-azabicyclo[3.2.1]octan-3-yl)piperidin-4-yl)-4-methyl-1H-benzo[d]imidazol-2-yl)-8-methoxy-[1,2,4]triazolo[1,5-a]pyridine]
< 4.30		7.19	< 4.30		7.19	Cn1c(-c2ccc(S(C)(=O)=O)cc2)nc2ccc(C3CCN(C4CCCN(C5CCC5)CC4)CC3)c(F)c21 (stereo not shown) [Example 312, 6-(1-(1-cyclobutylazepan-4-yl)piperidin-4-yl)-7-fluoro-1-methyl-2-(4-(methylsulfonyl)phenyl)-1H-benzo[d]imidazole]
4.83		7.08	< 4.60	7.08		Cc1cc(C2CCN(C3CC4CCC(C3)N4C3CCC3)CC2)cc2c1nc(-c1ccc(S(C)(=O)=O)cc1)n2C (single isomer, unassigned) [Example 152, 6-(1-(8-cyclobutyl-8-azabicyclo[3.2.1]octan-3-yl)piperidin-4-yl)-1,4-dimethyl-2-(4-(methylsulfonyl)phenyl)-1H-benzo[d]imidazole]
5.72		7.47	< 4.30		7.47	COCCN1CCCC(N2CCC(c3cc(C)c4nc(-c5ccc(S(C)(=O)=O)cc5)n(C)c4c3)CC2)CC1 (single isomer, unassigned) [Example 309, 6-(1-(1-(2-methoxyethyl)azepan-4-yl)piperidin-4-yl)-1,4-dimethyl-2-(4-(methylsulfonyl)phenyl)-1H-benzo[d]imidazole]
4.76	7.05		< 4.30			Cn1c(-c2ccc(S(C)(=O)=O)cc2)nc2c(F)cc(C3CCN(C4CCCN(C5COC5)CC4)CC3)cc21 (single isomer, unassigned) [Example 109, 4-fluoro-1-methyl-2-(4-(methylsulfonyl)phenyl)-6-(1-(1-(oxetan-3-yl)azepan-4-yl)piperidin-4-yl)-1H-benzo[d]imidazole]
< 4.30		6.30	< 4.30	6.30		Cn1c(-c2ccc(S(C)(=O)=O)cc2)nc2cc(C3CCN(C4CCN(C5CC5)CC4)CC3)cc(F)c21 [Example 202, 5-(1′-cyclopropyl-[1,4′-bipiperidin]-4-yl)-7-fluoro-1-methyl-2-(4-(methylsulfonyl)phenyl)-1H-benzo[d]imidazole]
5.09	6.17	6.17	4.46			COc1ccc(-c2nc3ccc(C4CCN(C5CCN(C6CC6)CC5)CC4)cc3n2CC(F)F)cc1OC [Example 33, 6-(1′-cyclopropyl-[1,4′-bipiperidin]-4-yl)-1-(2,2-difluoroethyl)-2-(3,4-dimethoxyphenyl)-1H-benzo[d]imidazole]
5.68		7.22	< 4.30		7.22	CC(C)CN1C2CCC1CC(N1CCC(c3cc(F)c4nc(-c5ccc(S(C)(=O)=O)cc5)n(C5CC5)c4c3)CC1)C2 (single isomer, unassigned) [Example 323, 1-cyclopropyl-4-fluoro-6-(1-(8-isobutyl-8-azabicyclo[3.2.1]octan-3-yl)piperidin-4-yl)-2-(4-(methylsulfonyl)phenyl)-1H-benzo[d]imidazole]
